Like-named read-outs stand apart in the source and are kept apart here.
What was measured:
[1] = biological target: ER (Homo sapiens (Human), UniProt P03372); test: In-cell western blot analysis of ER for "B" compounds; assay type: cell-based; details: 16 hours, read-out: ICW DC50
In short: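 ER levels given as a percentage of untreated/DMSO-treated wells (100%). Detection used primary antibodies for 2 h at room temperature followed by 680 and 800 nm fluorescent secondaries at 1:1000 for 1 h, read by LI-COR imaging.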

[2] = Cell growth assay (WST-8) for "B" compounds; assay type: cell-based; details: T47D, read-out: Cell growth Inhibition in T47D cell line IC50
In short: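 Four-day compound exposure of cells plated at 1500/well the day before. Read-out is WST-8 (10%, 2.5 h, 37 °C) absorbance at 450 nm, normalized to vehicle control over three independent repeats.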

ER, sequence (P03372 whole entry): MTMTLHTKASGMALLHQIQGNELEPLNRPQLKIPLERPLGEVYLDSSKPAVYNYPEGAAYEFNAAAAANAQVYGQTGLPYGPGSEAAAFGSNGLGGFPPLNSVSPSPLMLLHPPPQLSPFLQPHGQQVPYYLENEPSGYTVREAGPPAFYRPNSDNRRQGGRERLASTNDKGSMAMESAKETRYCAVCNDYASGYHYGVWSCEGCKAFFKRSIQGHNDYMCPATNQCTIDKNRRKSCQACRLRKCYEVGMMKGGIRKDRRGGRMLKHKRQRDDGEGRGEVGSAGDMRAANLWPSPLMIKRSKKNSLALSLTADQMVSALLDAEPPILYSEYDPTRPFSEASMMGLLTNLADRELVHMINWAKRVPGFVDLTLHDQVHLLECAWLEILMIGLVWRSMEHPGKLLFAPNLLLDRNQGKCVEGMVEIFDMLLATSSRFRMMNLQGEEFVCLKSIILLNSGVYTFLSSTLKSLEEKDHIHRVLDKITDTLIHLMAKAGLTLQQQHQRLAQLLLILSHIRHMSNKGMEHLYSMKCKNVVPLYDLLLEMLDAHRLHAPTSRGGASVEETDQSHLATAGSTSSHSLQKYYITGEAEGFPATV

In the case of O=C1CCC(N2Cc3cc4c(cc3C2=O)OC[C@@H]2CN(CC3CC5(CCN(c6ccc([C@@H]7c8ccc(O)cc8CC[C@@H]7c7ccccc7)cc6)CC5)CO3)CCN42)C(=O)N1 (stereo partly drawn) [Compound B173, 3-((4aS)-3-((8-(4-((1R,2S)-6-hydroxy-2-phenyl-1,2,3,4-tetrahydronaphthalen-1-yl)phenyl)-2-oxa-8-azaspiro[4.5]decan-3-yl)methyl)-8-oxo-1,2,3,4,4a,5,8,10-octahydro-9H-pyrazino[1′,2′: 4,5][1,4]oxazino[2,3-f]isoindol-9-yl)piperidine-2,6-dione], the DC50 [1] is reported as over 100 nM and the IC50 ([2]; T47D cell line) is reported as under 1 nM.

With O=C1CCC(N2Cc3c(ccc4c3OCC43CCN(CC4CC5(CCN(c6ccc([C@@H]7c8ccc(O)cc8CC[C@@H]7c7ccccc7)cc6)CC5)CO4)CC3)C2=O)C(=O)N1 (stereo partly drawn) [Compound B175, 3-(1′-((8-(4-((1R,2S)-6-hydroxy-2-phenyl-1,2,3,4-tetrahydronaphthalen-1-yl)phenyl)-2-oxa-8-azaspiro[4.5]decan-3-yl)methyl)-6-oxo-6,8-dihydro-2H,7H-spiro[furo[2,3-e]isoindole-3,4′-piperidin]-7-yl)piperidine-2,6-dione] the DC50 [1] was 10 to 100 nM and the IC50 [2] was under 1 nM.

O=C1CCC(N2Cc3cc4c(cc3C2=O)OC[C@@H]2CN(CC3CCC5(CCN(c6ccc([C@@H]7c8ccc(O)cc8CC[C@@H]7c7ccccc7)cc6)CC5)O3)CCN42)C(=O)N1 (stereo partly drawn) [Compound B177, 3-((4aS)-3-((8-(4-((1R,2S)-6-hydroxy-2-phenyl-1,2,3,4-tetrahydronaphthalen-1-yl)phenyl)-1-oxa-8-azaspiro[4.5]decan-2-yl)methyl)-8-oxo-1,2,3,4,4a,5,8,10-octahydro-9H-pyrazino[1′,2′: 4,5][1,4]oxazino[2,3-f]isoindol-9-yl)piperidine-2,6-dione] showed a DC50 [1] of over 100 nM and an IC50 ([2]; T47D cell line) of 1 to 10 nM.

With O=C1CCC(N2Cc3c(ccc4c3OCC43CCN(CC4CCC5(CCN(c6ccc([C@@H]7c8ccc(O)cc8CC[C@@H]7c7ccccc7)cc6)CC5)O4)CC3)C2=O)C(=O)N1 (stereo partly drawn) [Compound B178, 3-(1′-((8-(4-((1R,2S)-6-hydroxy-2-phenyl-1,2,3,4-tetrahydronaphthalen-1-yl)phenyl)-1-oxa-8-azaspiro[4.5]decan-2-yl)methyl)-6-oxo-6,8-dihydro-2H,7H-spiro[furo[2,3-e]isoindole-3,4′-piperidin]-7-yl)piperidine-2,6-dione] the DC50 [1] was over 100 nM and the IC50 [2] was under 1 nM.

For COc1c2c(cc3c1CN(C1CCC(=O)NC1=O)C3=O)CN(CC(=O)N1CCC3(CC1)CCN(c1ccc([C@@H]4c5ccc(O)cc5CC[C@@H]4c4ccccc4)cc1)CC3)C2 (stereo partly drawn) [Compound B203, 3-(6-(2-(9-(4-((1R,2S)-6-hydroxy-2-phenyl-1,2,3,4-tetrahydronaphthalen-1-yl)phenyl)-3,9-diazaspiro[5.5]undecan-3-yl)-2-oxoethyl)-4-methoxy-1-oxo-3,5,6,7-tetrahydropyrrolo[3,4-f]isoindol-2(1H)-yl)piperidine-2,6-dione], the DC50 [1] was under 10 nM and the IC50 ([2]; T47D cell line) was under 1 nM.

For O=C1CCC(N2Cc3cc4c(cc3C2=O)OC[C@@H]2CN(C(=O)CN3CC(Nc5ccc([C@@H]6c7ccc(O)cc7CC[C@@H]6c6ccccc6)cc5)C3)CCN42)C(=O)N1 (stereo partly drawn) [Compound B204, 3-((S)-3-(2-(3-((4-((1R,2S)-6-hydroxy-2-phenyl-1,2,3,4-tetrahydronaphthalen-1-yl)phenyl)amino)azetidin-1-yl)acetyl)-8-oxo-1,2,3,4,4a,5,8,10-octahydro-9H-pyrazino[1′,2′:4,5][1,4]oxazino[2,3-f]isoindol-9-yl)piperidine-2,6-dione], the DC50 [1] was under 10 nM and the IC50 ([2]; T47D cell line) was under 1 nM.

O=C1CCC(N2Cc3cc4c(cc3C2=O)OC[C@@H]2CN(C(=O)CN3CC5(C3)CN(c3ccc([C@@H]6c7ccc(O)cc7CC[C@@H]6c6ccccc6)cc3)C5)CCN42)C(=O)N1 (stereo partly drawn) [Compound B205, 3-((S)-3-(2-(6-(4-((1R,2S)-6-hydroxy-2-phenyl-1,2,3,4-tctrahydronaphthalen-1-yl)phenyl)-2,6-diazaspiro[3.3]heptan-2-yl)acetyl)-8-oxo-1,2,3,4,4a,5,8,10-octahydro-9H-pyrazino[1′,2′:4,5][1,4]oxazino[2,3-f]isoindol-9-yl)piperidine-2,6-dione] showed a DC50 [1] of under 10 nM and an IC50 ([2]; T47D cell line) of 1 to 10 nM.

In the case of O=C1CCC(N2Cc3cc4c(cc3C2=O)OC[C@@H]2CN(C(=O)CN3CC5(CCN(c6ccc([C@@H]7c8ccc(O)cc8CC[C@@H]7c7ccccc7)cc6)C5)C3)CCN42)C(=O)N1 (stereo partly drawn) [Compound B206, 3-((S)-3-(2-(6-(4-((1R,2S)-6-hydroxy-2-phenyl-1,2,3,4-tetrahydronaphthalen-1-yl)phenyl)-2,6-diazaspiro[3.4]octan-2-yl)acetyl)-8-oxo-1,2,3,4,4a,5,8,10-octahydro-9H-pyrazino[1′,2′:4,5][1,4]oxazino[2,3-f]isoindol-9-yl)piperidine-2,6-dione], the DC50 [1] is reported as under 10 nM and the IC50 ([2]; T47D cell line) is reported as under 1 nM.

Work on O=C1CCC(N2Cc3cc4c(cc3C2=O)OC[C@@H]2CN(CC(=O)N3CC(Nc5ccc([C@@H]6c7ccc(O)cc7CC[C@@H]6c6ccccc6)cc5)C3)CCN42)C(=O)N1 (stereo partly drawn) [Compound B207, 3-((S)-3-(2-(3-((4-((1R,2S)-6-hydroxy-2-phenyl-1,2,3,4-tetrahydronaphthalen-1-yl)phenyl)amino)azetidin-1-yl)-2-oxoethyl)-8-oxo-1,2,3,4,4a,5,8,10-octahydro-9H-pyrazino[1′,2′:4,5][1,4]oxazino[2,3-f]isoindol-9-yl)piperidine-2,6-dione] yielded a DC50 [1] of under 10 nM and an IC50 ([2]; T47D cell line) of under 1 nM.

In the case of O=C1CCC(N2Cc3cc4c(cc3C2=O)OC[C@@H]2CN(CC(=O)N3CC5(C3)CN(c3ccc([C@@H]6c7ccc(O)cc7CC[C@@H]6c6ccccc6)cc3)C5)CCN42)C(=O)N1 (stereo partly drawn) [Compound B208, 3-((S)-3-(2-(6-(4-((1R,2S)-6-hydroxy-2-phenyl-1,2,3,4-tetrahydronaphthalen-1-yl)phenyl)-2,6-diazaspiro[3.3]heptan-2-yl)-2-oxoethyl)-8-oxo-1,2,3,4,4a,5,8,10-octahydro-9H-pyrazino[1′,2′:4,5][1,4]oxazino[2,3-f]isoindol-9-yl)piperidine-2,6-dione], the DC50 [1] is reported as under 10 nM and the IC50 ([2]; T47D cell line) is reported as under 1 nM.

With O=C1CCC(N2Cc3cc4c(cc3C2=O)OC[C@@H]2CN(CC(=O)N3CC5(CCN(c6ccc([C@@H]7c8ccc(O)cc8CC[C@@H]7c7ccccc7)cc6)C5)C3)CCN42)C(=O)N1 (stereo partly drawn) [Compound B209, 3-((S)-3-(2-(6-(4-((1R,2S)-6-hydroxy-2-phenyl-1,2,3,4-tetrahydronaphthalen-1-yl)phenyl)-2,6-diazaspiro[3.4]octan-2-yl)-2-oxoethyl)-8-oxo-1,2,3,4,4a,5,8,10-octahydro-9H-pyrazino[1′,2′:4,5][1,4]oxazino[2,3-f]isoindol-9-yl)piperidine-2,6-dione] the DC50 [1] was under 10 nM and the IC50 ([2]; T47D cell line) was under 1 nM.

Work on COc1c2c(cc3c1CN(C1CCC(=O)NC1=O)C3=O)CN(C(=O)CN1CCC3(CC1)CCN(c1ccc([C@@H]4c5ccc(O)cc5CC[C@@H]4c4ccccc4)cc1)CC3)C2 (stereo partly drawn) [Compound B210, 3-(6-(2-(9-(4-((1R,2S)-6-hydroxy-2-phenyl-1,2,3,4-tetrahydronaphthalen-1-yl)phenyl)-3,9-diazaspiro[5.5]undecan-3-yl)acetyl)-4-methoxy-1-oxo-3,5,6,7-tetrahydropyrrolo[3,4-f]isoindol-2(1H)-yl)piperidine-2,6-dione] yielded a DC50 [1] of under 10 nM and an IC50 ([2]; T47D cell line) of under 1 nM.

For O=C1CCC(N2Cc3cc4c(cc3C2=O)OC[C@@H]2CN(CC3CC5(CCN(c6ccc([C@@H]7c8ccc(O)cc8CC[C@@H]7c7ccccc7)cc6)CC5)C3)CCN42)C(=O)N1 (stereo partly drawn) [Compound B211, 3-((S)-3-((7-(4-((1R,2S)-6-hydroxy-2-phenyl-1,2,3,4-tetrahydronaphthalen-1-yl)phenyl)-7-azaspiro[3.5]nonan-2-yl)methyl)-8-oxo-1,2,3,4,4a,5,8,10-octahydro-9H-pyrazino[1′,2′:4,5][1,4]oxazino[2,3-f]isoindol-9-yl)piperidine-2,6-dione], the DC50 [1] was under 10 nM and the IC50 ([2]; T47D cell line) was 1 to 10 nM.

In the case of O=C1CCC(N2Cc3c(ccc4c3OCC43CCN(CC(=O)N4CC5(CCN(c6ccc([C@@H]7c8ccc(O)cc8CC[C@@H]7c7ccccc7)cc6)C5)C4)CC3)C2=O)C(=O)N1 (stereo partly drawn) [Compound B212, 3-(1′-(2-(6-(4-((1R,2S)-6-hydroxy-2-phenyl-1,2,3,4-tetrahydronaphthalen-1-yl)phenyl)-2,6-diazaspiro[3.4]octan-2-yl)-2-oxoethyl)-6-oxo-6,8-dihydro-2H,7H-spiro[furo[2,3-e]isoindole-3,4′-piperidin]-7-yl)piperidine-2,6-dione], the DC50 [1] is reported as under 10 nM and the IC50 [2] is reported as under 1 nM.

Compound O=C1CCC(N2Cc3c(ccc4c3OCC43CCN(CC(=O)N4CCC5(CC4)CN(c4ccc([C@@H]6c7ccc(O)cc7CC[C@@H]6c6ccccc6)cc4)C5)CC3)C2=O)C(=O)N1 (stereo partly drawn) [Compound B213, 3-(1′-(2-(2-(4-((1R,2S)-6-hydroxy-2-phenyl-1,2,3,4-tetrahydronaphthalen-1-yl)phenyl)-2,7-diazaspiro[3.5]nonan-7-yl)-2-oxoethyl)-6-oxo-6,8-dihydro-2H,7H-spiro[furo[2,3-e]isoindole-3,4′-piperidin]-7-yl)piperidine-2,6-dione] has a DC50 [1] of under 10 nM and an IC50 [2] of under 1 nM.

O=C1CCC(N2Cc3c(ccc4c3OCC43CCN(C(=O)CN4CCC5(CC4)CN(c4ccc([C@@H]6c7ccc(O)cc7CC[C@@H]6c6ccccc6)cc4)C5)CC3)C2=O)C(=O)N1 (stereo partly drawn) [Compound B214, 3-(1′-(2-(2-(4-((1R,2S)-6-hydroxy-2-phenyl-1,2,3,4-tetrahydronaphthalen-1-yl)phenyl)-2,7-diazaspiro[3.5]nonan-7-yl)acctyl)-6-oxo-6,8-dihydro-2H,7H-spiro[furo[2,3-e]isoindole-3,4′-piperidin]-7-yl)piperidine-2,6-dione] gave a DC50 [1] of under 10 nM and an IC50 ([2]; T47D cell line) of under 1 nM.

From patent publication US20260028354A1, “TETRAHYDRONAPHTHALENE DERIVATIVES AS ESTROGEN RECEPTOR DEGRADERS” (REGENT OF THE UNIVERSITY OF MICHIGAN, priority 2022, published 2026)
